Data as given in US10426758B2, “Sibiriline derivatives for use for preventing and/or treating disorders associated with cellular necroptosis” (Institut National de la Sante et de la Recherche Medicale …, priority 2015, dated 2019).

Tests used:
[1] = tested on: Jurkat Fadd deficient cells; assay: Delayed treatment of Sib on TNF-induced necroptotic cell-death; format: cell-based, human; details: 10 μM added 1 h, 2 h, 3 h or 4 h after TNF-α (10 ng/ml); cell death after 24 h
Procedure: Jurkat Fadd deficient cells are treated with TNF-α (10 ng/ml) then treated with Sib (10 μM) at 1 h, 2 h, 3 h or 4 h after adding TNF-α. % of cell death is determined after 24 h and calculated by a FACS analysis of Propidium Iodide-stained nuclei. Quantitative analysis of three independent experiments with means±SD.

[2] = tested on: Jurkat FADD-deficient I 2.1 cell line; assay: Cell-based screening: TNF-α-induced necroptosis in Jurkat FADD-deficient cells, MTS viability assay; parameters: species or system human
Excerpt: TNF-α can induce necroptosis in Jurkat cells (human T lymphocytes) when FADD is deleted. This model was used to screen various libraries of chemical compounds for characterization of new inhibitors of cellular necroptosis. Details on this cell-based assay can be found in (Miao and Degterev, Methods Mol. Biol. 2009, 559, 79-93). The Jurkat FADD-deficient I 2.1 cell line used was purchased from ATCC and was maintained in RPMI 1640 medium (Gibco) containing Glutamax and 15% fetal calf serum (Life Technology). Necroptosis was induced by addition of 10 ng/ml of human recombinant TNF-α (Life Technology). Necrostatin-1 (Nec-1, Enzo Life Sciences) was used as model necroptosis inhibitor. Cells were maintained in 75 cm^2 flask and passed every 2 or 3 days. Chemical collections analysed were formatted in 96-well plates with 80 molecules per plates at 10 mM in 100% DMSO. For each collection plate, 2 cell plates were seeded (one necroptosis-induced with TNF-α and the other without TNF-α). Cells were seeded at 20000 cells/well, in 40 μl of medium, in a 96-well clear, flat bottom plate (CytoOne, Starlab) before treatment. Then, 40 μl of medium with or without TNF-α at 25 ng/ml were added to all wells in the corresponding plate. Immediately after TNF-α addition, 20 μl of diluted compound at 50 μM were added to the plates. Final concentration of each chemical compound was 10 μM at 0.1% DMSO. Four positives (Nec-1 at 10 μM final) and four negative (DMSO) controls were used in each plate to validate the assay. Cells were incubated at 37° C., 5% CO2 for 24 hours before performing MTS viability assay, described hereafter. Compounds were diluted before to treat cells. Liquid handling was performed using the Nimbus Microlab liquid handler (Hamilton Robotics) under microbiological safety workbench. The 10 mM compounds were diluted at 50 μM directly in cell medium.

[3] = tested on: murine model of acute hepatitis (concanavalin A-induced hepatitis); assay: Concanavalin A-induced acute hepatitis in mice; format: in vivo, C57Bl/6 WT mice
Procedure: We use a murine model of acute hepatitis (concanavalin A-induced hepatitis) that depends on necroptosis induction (Jouan-Lanhouet et al. Semin. Cell. Dev. Biol. 2014, 35, 2-13). Sib is diluted in 50% PBS/50% DMSO.
C57Bl/6 WT mice were pre-treated or not with 3, 6 or 9 mg/kg Sib or 6.25 mg/kg Nec-1s injected by intraperitoneal route 1 hour before treatment or not with 12 mg/kg Con A for 10 h (intravenous route) (50% PBS/50% DMSO, n=5; 50% PBS/50% DMSO+Con A, n=5; 3 mg/kg Sib+Con A, n=5; 6 mg/kg Sib+Con A, n=5; 9 mg/kg Sib+Con A, n=5; 6.25 mg/kg Nec-1s+Con A, n=5).

[4] = tested on: cytochrome P450 CYP1A enzymes in HepG2 cells; assay: Ethoxyresorufin O-deethylase (EROD) activity in HepG2 cells; format: in vitro ADME, human; details: 10 μM, 24 hours
Procedure: EROD activity corresponds to the O-deethylation of ethoxyresorufin and is mainly supported by cytochrome P450 CYP1A enzymes in HepG2 cells. Induction of CYP1A is mediated through the binding of xenobiotics to a cytosolic aryl hydrocarbon receptor AhR.
Human liver cancer cell lines HepG2 were treated with 10 μM of Sib, Nec-1 or Nec-1s for 24 hours. After treatment, HepG2 cells were incubated in PBS containing 5 mM ethoxyresorufin and kinetic reading was performed at 37° C. with spectrofluorometer (SpectraMax Gemini SX) over a 15 min period.

U937 cells [5] = assay: Anti-necroptotic effect, U937 cells, TRAIL + zVAD, FACS of propidium iodide-stained nuclei; format: cell-based
Procedure: (§1) L929 cells, L929AsFas cells, Jurkat FADD-deficient cells (Jurkat FADD^−/−), U937 cells are pretreated for 1 h with increased concentrations of Sib (0, 5, 10, 20 μM) and then treated respectively with TNF-α (10 ng/ml)+zVAD (20 μM), FasL (200 ng/ml)+zVAD (20 μM), TNF-α (10 ng/ml), TRAIL (200 ng/ml)+zVAD (30 μM) or TRAIL (200 ng/ml)+zVAD (30 μM)+CHX (1 μg/ml). % of cell death is determined after 24 h and calculated by a FACS analysis of Propidium Iodide-stained nuclei. In each case, the EC50 is determined as well as the % of rescue from cell death.

L929AsFas cells = assay: Anti-necroptotic effect, L929AsFas cells, FasL + zVAD, FACS of propidium iodide-stained nuclei; format: cell-based
Procedure: as §1

KIT = KIT (Homo sapiens, UniProt P10721); assay: Competition binding assay for kinase targets of Sib (456 kinases); details: remaining kinase on the matrix after competition, read-out: Percent Control (%)
Procedure: (§2) The assay is performed by combining three components: DNA-tagged kinase (a total of 456 kinases were tested); immobilized ligand; and a test compound (here Sib). The ability of Sib to compete with the immobilized ligand is measured via quantitative PCR of the DNA tag.

PDGFRB = PDGFRB (Homo sapiens, UniProt P09619); assay: as above; details: remaining kinase on the matrix after competition, read-out: Percent Control (%)
Procedure: as §2

[6] = biological target: T1, JAK2 (JH1domain-catalytic) (Homo sapiens, UniProt O60674); assay: as above; details: remaining kinase on the matrix after competition, read-out: Percent Control (%)
T1 construct: JAK2(JH1domain-catalytic)
Procedure: as §2

U937 cells [7] = assay: Anti-necroptotic effect, U937 cells, TRAIL + zVAD + CHX, FACS of propidium iodide-stained nuclei; format: cell-based
Procedure: as §1

[8] = Homo sapiens, U-937, 1 h pretreatment, cell death after 24 h

Sequence of PDGFRB (P09619 33-1106): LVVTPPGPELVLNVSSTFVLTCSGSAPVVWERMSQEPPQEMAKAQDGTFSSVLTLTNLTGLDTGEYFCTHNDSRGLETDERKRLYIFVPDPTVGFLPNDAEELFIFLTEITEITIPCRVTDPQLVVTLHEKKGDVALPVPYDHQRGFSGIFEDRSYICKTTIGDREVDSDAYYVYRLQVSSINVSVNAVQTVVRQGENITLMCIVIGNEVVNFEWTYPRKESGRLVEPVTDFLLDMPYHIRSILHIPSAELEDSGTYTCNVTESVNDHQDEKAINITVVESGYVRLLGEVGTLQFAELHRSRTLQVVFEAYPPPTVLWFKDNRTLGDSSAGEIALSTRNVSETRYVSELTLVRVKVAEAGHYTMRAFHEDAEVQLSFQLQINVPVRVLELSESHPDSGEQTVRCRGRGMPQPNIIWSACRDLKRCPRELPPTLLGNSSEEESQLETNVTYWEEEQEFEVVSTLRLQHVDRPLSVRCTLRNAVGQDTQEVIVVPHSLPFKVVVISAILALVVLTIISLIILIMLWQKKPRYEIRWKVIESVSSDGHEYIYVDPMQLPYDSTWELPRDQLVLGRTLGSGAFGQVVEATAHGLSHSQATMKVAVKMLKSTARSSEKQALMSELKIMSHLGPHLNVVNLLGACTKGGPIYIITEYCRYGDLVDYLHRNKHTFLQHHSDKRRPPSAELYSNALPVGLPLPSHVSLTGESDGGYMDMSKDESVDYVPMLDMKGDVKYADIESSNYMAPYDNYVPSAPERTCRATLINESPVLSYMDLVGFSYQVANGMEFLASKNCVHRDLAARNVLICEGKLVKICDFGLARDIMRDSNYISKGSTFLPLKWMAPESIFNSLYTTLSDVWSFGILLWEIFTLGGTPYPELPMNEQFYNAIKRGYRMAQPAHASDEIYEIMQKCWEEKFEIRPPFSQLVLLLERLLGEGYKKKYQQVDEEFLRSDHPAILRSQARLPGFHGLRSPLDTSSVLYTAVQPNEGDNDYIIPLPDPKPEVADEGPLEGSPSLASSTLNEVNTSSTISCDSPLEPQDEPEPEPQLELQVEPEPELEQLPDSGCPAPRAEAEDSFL
Sequence of KIT (P10721 26-976): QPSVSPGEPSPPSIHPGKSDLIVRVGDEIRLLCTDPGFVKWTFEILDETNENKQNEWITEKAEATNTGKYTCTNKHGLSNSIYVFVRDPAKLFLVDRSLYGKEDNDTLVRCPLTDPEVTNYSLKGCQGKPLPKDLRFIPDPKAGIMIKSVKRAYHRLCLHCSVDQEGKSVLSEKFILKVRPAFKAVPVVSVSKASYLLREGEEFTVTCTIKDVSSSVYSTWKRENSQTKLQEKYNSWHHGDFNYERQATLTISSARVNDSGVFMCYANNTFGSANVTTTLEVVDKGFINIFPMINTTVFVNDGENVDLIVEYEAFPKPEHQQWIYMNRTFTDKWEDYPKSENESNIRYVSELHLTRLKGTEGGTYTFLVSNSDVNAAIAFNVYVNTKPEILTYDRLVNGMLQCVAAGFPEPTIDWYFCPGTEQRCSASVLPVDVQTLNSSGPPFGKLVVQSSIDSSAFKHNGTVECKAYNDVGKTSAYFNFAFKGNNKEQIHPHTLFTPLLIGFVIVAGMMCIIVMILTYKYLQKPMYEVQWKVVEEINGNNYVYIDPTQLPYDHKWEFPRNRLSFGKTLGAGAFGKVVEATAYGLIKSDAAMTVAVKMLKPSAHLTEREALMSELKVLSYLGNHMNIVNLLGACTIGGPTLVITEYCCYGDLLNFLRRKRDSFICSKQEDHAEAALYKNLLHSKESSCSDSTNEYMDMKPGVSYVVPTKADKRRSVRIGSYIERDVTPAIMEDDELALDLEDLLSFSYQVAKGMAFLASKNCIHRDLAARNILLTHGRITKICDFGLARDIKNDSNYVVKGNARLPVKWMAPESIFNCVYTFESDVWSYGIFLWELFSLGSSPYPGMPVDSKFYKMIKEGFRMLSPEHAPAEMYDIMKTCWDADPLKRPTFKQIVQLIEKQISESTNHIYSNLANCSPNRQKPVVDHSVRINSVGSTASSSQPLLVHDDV
T1 sequence (O60674 849-1124 limits assumed): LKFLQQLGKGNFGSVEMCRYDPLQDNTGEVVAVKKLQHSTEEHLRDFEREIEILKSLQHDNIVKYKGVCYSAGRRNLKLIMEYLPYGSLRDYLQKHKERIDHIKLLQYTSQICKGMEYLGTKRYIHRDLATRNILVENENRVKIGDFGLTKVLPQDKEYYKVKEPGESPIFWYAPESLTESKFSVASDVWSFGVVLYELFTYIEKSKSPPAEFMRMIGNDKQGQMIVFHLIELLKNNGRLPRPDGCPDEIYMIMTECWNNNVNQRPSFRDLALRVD

- induction of EROD activity [4]: do not induce EROD activity
- remaining binding at 10 µM (KIT): 0.8%
- remaining binding at 10 µM (PDGFRB): 0.75%
- remaining binding at 10 µM [6]: 0.2%
SMILES: Oc1ccc(-c2cc3cccnc3[nH]2)cc1 [compound 2, 4-(1H-pyrrolo[2,3-b]pyridin-2-yl)phenol]
- effect on necroptotic cell-death with delayed treatment [1]: inhibits the necroptotic cell-death
- EC50 ([2]; Homo sapiens, Jurkat, necroptosis induced by 10 ng/ml TNF-α, 24 hours, MTS viability): 1.3 µM
- inhibition of necroptosis induced by TNF-α (figure legend) ([2]; human T lymphocyte, Jurkat FADD deficient cell line): dose-dependent inhibition
- AST and ALT levels and protection from Con A-induced hepatitis ([3]; Sib 9 mg/kg intraperitoneal 1 hour before 12 mg/kg Con A for 10 h): This protection is not observed
- AST and ALT levels and protection from Con A-induced hepatitis ([3]; Sib 3 or 6 mg/kg intraperitoneal 1 hour before 12 mg/kg Con A for 10 h): has a tendency to decrease AST and ALT levels and to protect mice from Con A-induced hepatitis
- serum aminotransaminases (ALT, AST) levels induced by ConA (figure legend) ([3]; dose of 3 mg/kg): decreases these serum transaminase levels
- EC50 (U937 cells [5]; [8]): 4 µM
- % Rescue (U937 cells [5]; rescue from cell death, 24 h): 90%
- EC50 (L929AsFas cells; 1 h pretreatment, cell death after 24 h): 2.4 µM
- % Rescue (L929AsFas cells; rescue from cell death, 24 h): 80%
- EC50 (U937 cells [7]; [8]): 20 µM
- % Rescue (U937 cells [7]; rescue from cell death, 24 h): 50%
